Assay results published in publication PMC5685716, “Oral 4-(N)-stearoyl gemcitabine nanoparticles inhibit tumor growth in mouse models” (Oncotarget, 2017).
Converted amounts (≈) assume the structure as drawn. “And” between values parts separate entries of the source, which are not always exact repeats. Identical values can stand only once. Counter-ions that a name gives are not always drawn. Like-named read-outs stand apart in the source and are kept apart here.

How the values were obtained:
[1] = system: TC-1 tumor cells; design: method as in PMID 23570983; settings: 3 × 10^3 cells, 48 h of incubation; cited from earlier work
[2] = system: LLC cells; design: method as in earlier work; settings: 3 × 10^3 cells, 48 h incubation; cited from earlier work
[3] = system: HT-29 tumor cells; design: method as in PMID 17352232; settings: peritumoral injection, GemC18 in a Tween 80 solution; cited from earlier work
[4] = design: method as in PMID 19860433, PMID 26806350; settings: cited from earlier work
[5] = system: B16F10 tumors; design: method as in PMID 21371545, PMID 22471294; settings: GemC18 dissolved in a Tween 20 solution; cited from earlier work
[6] = system: LLC tumors; experiment: Antitumor activity in mice with LLC lung tumors; format: in vivo, C57BL/6J mice; settings: p.o. once in every two days, GemC18 250 μg/mouse, GemHCl 141.5 μg/mouse (molar equivalent)
Procedure: LLC tumors were established in female C57BL/6J mice (6-8 week) from the Beijing Vital River Laboratory Animal Technology Co., Ltd. (Beijing, China). Mice were s.c. injected with LLC cells (5 × 10^5) in their back on day 0. On day 11, mice were randomized into groups (n = 8) and were treated by oral gavage with GemC18-SLNs, GemC18-free SLNs, GemC18 alone in a Tween 20 solution, GemHCl (molar equivalent of GemC18), all in a mannitol solution (5%, w/v). Control mice were orally gavaged with a mannitol solution (5%). Mice were treated once in every two days for 3 weeks. The dose of GemC18 was 250 μg/mouse, 141.5 μg/mouse for GemHCl (i.e. molar equivalent to 250 μg of GemC18). GemC18 was dissolved into 1% (v/v) Tween 20 in a 5% (w/v) mannitol solution to a proper concentration. Mouse health was monitored daily, and weight recorded. Tumor size was measured every other day. […] Microscopic images taken at 200 x magnification were analyzed using an Image-Pro Plus software (Media Cybernetics, Inc., Shanghai, China) to determine the percent of cells that are Ki67 positive, the microvessel density (MVD) in tumor tissues, and the optical density of the anti-caspase 3 staining.

[7] = system: TC-1 tumors; design: method as in PMID 21371545, PMID 22471294; settings: GemC18 dissolved in a Tween 20 solution; cited from earlier work
[8] = design: method as in PMID 19860433; settings: mouse model, molar equivalent dose, cited from earlier work
[9] = design: method as in PMID 19860433, PMID 17090088; settings: oral, animal (rodent) models; cited from earlier work
[10] = system: leukemia; settings: oral, rat leukemia model; cited from earlier work
[11] = design: method as in PMID 18473859, PMID 18474674; settings: in water; cited from earlier work
[12] = system: TC-1 tumors; experiment: Antitumor activity in mice with pre-established TC-1 tumors; format: in vivo, C57BL/6 mice; settings: p.o. once daily, GemC18 150 μg/mouse, gemcitabine HCl 85 μg/mouse (molar equivalent)
Excerpt: When TC-1 tumor cells were used, female C57BL/6 mice (18-20 g, 6-8 weeks, n = 5) were subcutaneously (s.c) injected with TC-1 cells (5 × 10^5 cells/mouse) in the right flank on day 0. Mouse hair was carefully trimmed at the injection site one day prior to the injection. Treatment with GemC18-SLNs, GemC18-in-vegetable oil (GemC18-in-oil), GemC18-free SLNs, all in a mannitol solution (5%, w/v), was started on day 11, and mice were orally gavaged daily until the endpoint (i.e. death, tumor size reaching 15 mm, tumor ulceration, body weight loss of more than 20%, or other signs of severe distress and discomfort). As controls, mice were orally gavaged with a mannitol solution (5%) or i.v. injected with the GemC18-SLNs, twice a week until the endpoint. The dose of GemC18 was 250 μg per mouse per dose for the oral route, 500 μg per mouse per dose for i.v. route. Tumor size was measured 2-3 times a week, and tumor volume was calculated as: volume (mm^3) = (length x width^2)/2. Mouse survival time was also recorded. In another study, TC-1 tumor-bearing female C57BL/6 mice were orally gavaged with GemC18-SLNs, GemC18-in-oil, vegetable oil alone (oil), or gemcitabine HCl (GemHCl, as a control), once daily. The dose of GemC18 was 150 μg per mouse per dose, and dose of GemHCl was 85 μg per mouse per dose (i.e. molar equivalent to the dose of GemC18).

[13] = design: method as in PMID 18519780; settings: human subjects, patients with advanced or metastatic cancer, estimated; cited from earlier work

| Structure (SMILES) | IC50 [1] | IC50 [2] | solubility in water [4] | LLC tumor growth [6] | antitumor activity vs molar equivalent dose of gemcitabine [9] | also measured |
| --- | --- | --- | --- | --- | --- | --- |
| CCCCCCCCCCCCCCCCCC(=O)Nc1ccn([C@@H]2OC(CO)C(O)C2(F)F)c(=O)n1 (stereo partly shown) [GemC18, 4-(N)-stearoyl gemcitabine] | 18.5 ± 1.7 nM | 130 ± 31.1 nM | 1.38 ± 1.60 µg/mL (≈ 2.61 µM) | also inhibited LLC tumor growth, but they were significantly less effective than oral GemC18-SLNs | – | tumor growth [3]: did not significantly affect the tumor growth; antitumor activity [5]: did not show any significant antitumor activity; antitumor activity [7]: did not show any significant antitumor activity |
| CCCC(CCC)C(=O)Nc1ccn([C@@H]2O[C@H](CO)[C@@H](O)C2(F)F)c(=O)n1 [LY2334737] | – | – | > 2000 µg/mL | – | stronger antitumor activity | systemic exposure (AUC) vs oral gemcitabine ([8]; listed as LY2334734): higher systemic exposure of gemcitabine than oral free gemcitabine; systemic exposure (AUC) vs oral gemcitabine [8]: significantly higher |
| CC(C)=CCC/C(C)=C/CC/C(C)=C/CC/C=C(\C)CC/C=C(\C)CCC(=O)Nc1ccn([C@@H]2O[C@H](CO)[C@@H](O)C2(F)F)c(=O)n1 [SQdFdC] | – | – | – | – | stronger antitumor activity | antitumor activity [10]: potent antitumor activity; size of self-assembled nanoparticles [11]: 100-300 nm |
| Nc1ccn([C@@H]2O[C@H](CO)[C@@H](O)C2(F)F)c(=O)n1 [gemcitabine HCl] | – | 23.4 ± 6.7 nM | – | also inhibited LLC tumor growth, but they were significantly less effective than oral GemC18-SLNs | – | TC-1 tumor growth [12]: significantly less effective than the GemC18-SLNs |
| Nc1ccn([C@@H]2O[C@H](CO)[C@@H](O)C2(F)F)c(=O)n1 [gemcitabine, 2′,2′-difluorodeoxycytidine] | 10.6 ± 1.1 nM | – | – | – | – | oral bioavailability [13]: 10% and ~ 10% |
